Here are results for 5 compounds from US10913732B2, “Furoxans as therapies for neurodegenerative disorders” (The University of Toledo, priority 2016, dated 2021).

One experiment relates to PC12 cells. Kind of experiment: In vitro neuroprotection against oxygen glucose deprivation (OGD), MTT viability readout. The format is cell-based. Particulars: OGD 90 min, reoxygenation, furoxan 1, 10 or 25 μM, 24 hr. The protocol: FIGS. 3A-3C: Neuroprotection (FIG. 3A), MTT treatment was used to assess cell viability (FIG. 3B), and pCREB modulation (FIG. 3C) of furoxan compounds. Neuroprotection assay workflow: expose PC12 cells to oxygen glucose deprivation (OGD) for 90 min→reoxygenate and add furoxan (1, 10, or 25 μM)→incubate for 24 hr→MTT readout of viability. Data represented as mean and s.e.m. (n=3). *=p<0.05, **=p<0.01, ***=p<0.001 compared to vehicle control using one way ANOVA analysis with Dunnett's post-hoc test. Red dashed line indicates threshold of vehicle effects. For pCREB modulation, 31b (25 μM) was examined (PC-12 cells, 48 hr incubation) in the following: without insult, with OGD, L-NAME.
It has been shown that furoxans are protective against oxygen glucose deprivation (OGD), a commonly used cellular model of ischemic stroke. PC12 cells were submitted to OGD for 90 minutes followed by reoxygenation and treatment with varying concentrations of selected embodiments of compounds of Formula I (indicated in FIG. 3A). After 24 hr, MTT treatment was used to assess cell viability (FIG. 3B). […] It has been shown previously that 4-N-oxides release NO at a much slower rate than corresponding 2-N-oxides.

The test system of a further experiment is Male C57BL/6 mice. The experiment can be described thus: Step-through passive avoidance (STPA), scopolamine-induced amnesia. The format is in vivo. Particulars: scopolamine 1 mg/kg i.p. alone (vehicle treated: 270 s±30 s), 24 hr after training. Here is the method:
FIGS. 4A-4B: STPA experimental timeline (FIG. 4A), and results of Male C57BL/6 mice administered either vehicle or 31b via i.p. injection at 60 min or 120 min prior to training in STPA (FIG. 4B). […] Memory retention was measured as latency to enter the dark compartment 24 h after training. Data represented as mean and s.e.m.
The STPA apparatus consisted of an acrylic box with an illuminated compartment connected to a darkened compartment by a small guillotine door. Mice were placed in the illuminated side and were trained against their natural tendency to translocate to the dark side using an aversive stimulus (shock via electrified floor grading). Memory consolidation is measured as the latency times to enter the dark compartment 24 hr after training.
All procedures were performed under the approved IACUC protocol #108451. Male C57BL/6 mice (Envigo), N=9 per group, were habituated at the animal facility for at least 14 days. Ear tags were applied and animals weighed. 2 hr prior to the drug adminstration the mice were individually acclimated to the illuminated compartment to assess tendency to enter the dark chamber (measured in seconds). In this phase no shock was be delivered. […] The mice were then administered either vehicle (95 [0.9% NaCl]:5 [DMSO]) or 31b (0.1, 1, 10, or 20 mg/kg) via i.p. injection (50 μL) at 1 h or 2 h prior to training. […] Mice were individually placed into the light compartment and upon translocation to the dark compartment the guiltine door closed and the mice were trained by delivering a mild adversive stimulus (0.5 mA) via the electrified floor grading of the dark chamber. Each mouse was held in the dark chamber for 30 seconds, then returned to their cage for 120 seconds before the second training session. […] Memory retention was measured 24 hours after training by placing the same mouse in the light chamber and measuring latency to enter the dark chamber (no aversive stimulus is delivered during the retention test). Data was analyzed by one way ANOVA analysis with Dunnett's post-hoc test.

`CC1CCN(Cc2no[n+]([O-])c2-c2ccc(Br)cc2)CC1` [33b]: the “Neuroprotection against OGD (cell viability by MTT)” value (“Neuroprotection against OGD” for short) with PC12 cells was “outperform the corresponding 2-N-oxides”. `CC1CCN(Cc2no[n+]([O-])c2-c2ccc(OC(F)(F)F)cc2)CC1` [37b, 4-((4-methylpiperidin-1-yl)methyl)-3-(4-(trifluoromethoxy)phenyl)-1,2,5-oxadiazole 2-oxide]: in the experiment with PC12 cells, the “Neuroprotection against OGD” value is “outperform the corresponding 2-N-oxides”. With `Cc1ccc(-c2c(CN3CCC(C)CC3)no[n+]2[O-])cc1` [38b, 4-((4-methylpiperdin-1-yl)methyl)-3-(p-tolyl)-1,2,5-oxadiazole 2-oxide], in the experiment on PC12 cells, the “Neuroprotection against OGD” value is given as “outperform the corresponding 2-N-oxides”.

Regarding `[2H]C1([2H])CC(C)CC([2H])([2H])N1Cc1no[n+]([O-])c1-c1ccc(F)cc1` [41b], the “Neuroprotection against OGD” value in the experiment on PC12 cells is “outperform the corresponding 2-N-oxides”.

`CN1[C@@H]2C[C@@H](OC(=O)[C@H](CO)c3ccccc3)C[C@H]1[C@@H]1O[C@@H]12` [Scopolamine, reference compound]: the “Latency to enter the dark compartment” value with Male C57BL/6 mice was 63.5 s.
